In series [1] the test system is HBV transgenic mice. Description: Serum HBV DNA copy number in HBV transgenic mice, real-time PCR. Format: in vivo. Conditions: for effective rate (serum HBV DNA): tail i.v. daily. From the text:
HBV transgenic mice were purchased from Guangzhou Junketaite Pharmaceutical Technology Co., Ltd. The animal model is a 1.3 copies high expressing replicative form HBV whole-genome transgenic mice Tg (HBV 1.3 genome) Swb established using microinjection method by Guangzhou Junketaite Pharmaceutical Technology Co., Ltd. Serum HBsAg and HBeAg can be analyzed with common ELISA kit; serum HBV DNA of 93.93% positive transgenic mice is 10^4˜10^6 copy/mL; liver tissues in immunohistochemistry have HBsAg (cytoplasmic type) and HBcAg (karyotype) expression. […] This makes a good foundation for the transgenic model to be used in evaluating anti-HBV drugs.
(§1) Prepare D-TTK001 aseptically. Administer 2.5 mg/kg (10 mice) or 5.0 mg/kg (42 mice) based on mice weight through tail intravenous injection in a volume of 50 μL. Administer 50 μL of sterile PBS to blank control group (10 mice). Mice are 6-8 months old, half male and half female. Inject daily for 3 weeks (21 days in total). Take artery blood from mice tail before administration for future measurement of HBV DNA content in mice blood, record as T0 group. Take artery blood from mice tail after one week (T1+ group), two weeks (T2+ group), and three weeks (T3+ group) of administration. Take blood after one week of stopping administration (T4 group). Blood samples were standed in room temperature for 2-4 hours to prepare serum. Store samples in −80° C. refrigerator for future measurement of HBV DNA content in mice blood.
(i) Preparation of test samples: Take out the test samples from −80° C. refrigerator. Place it at room temperature for balancing. Take corresponding amount of reaction liquid, enzyme mix and internal standard by proportion (reaction liquid 38 μL per serving+enzyme mix 2 μL per serving+internal standard 0.2 μL per serving) according to numbers of test sample, negative control sample and reference sample, mix sufficiently as PCR-mix. Sample treatment (negative control, positive control quantitative reference and test samples are treated synchronously): Add 5 μL of cell nucleic releaser into each PCR reaction tube, then add 5 μL test sample into each tube, absorb back and forth for 3-5 times and mix; after more than 10 minutes interval, add 40 μL of PCR-mix into each tube, close the tubes with caps, centrifuge at 2000 rpm for 30 seconds.
Utilizing real time PCR HBV DNA assay kit manufactured by Sun Yat-sen University Daan Gene Co., Ltd. according to the manufacturer's specification as followed: Place PCR reaction tube into sample cell of PCR instrument, set negative control, positive control, quantitative references A-D and test sample in corresponding order, and then set sample name and concentration of quantitative reference. Selection of fluorescence detection channel: for example, in ABI 7300 instrument, i) select FAM channel (reporter: FAM, quencher: none) to detect HBV-DNA; ii) select HEX/VIC channel (reporter: HEX/VIC, quencher: none) to detect HBV-internal standard; iii) set passive reference as ROX.
Set analysis conditions: adjust start value, stop vale of Baseline and Value of Threshold according to analyzed image (arbitrary adjustable by user according to actual needs, start value can be 1˜10, stop value can be 5˜10, Value can be 0.01˜0.2) to optimize standard curve in “Std curve” window, i.e., correlation between −1.0˜−0.97. Select “Analyze” in “Analysis” menu for automatic result analysis. Record value (C) of unknown variable in “Tray” window. “C” indicates concentration or content of the sample.
On the technique in general: Quantitative PCR measures a nucleic acid by following its amplification.

For series [2], the system named is HBV transgenic mice. Description: Pathological observation of liver tissue of HBV transgenic mice. Format: in vivo. As to conditions: 5 mg/kg, tail intravenous injection, 3 weeks treatment. On the procedure:
as §1
After above experiments on HBV transgenic mice were finished, mice were sacrificed, and liver tissue was taken, fixed with formalin, embed with conventional method, to prepare tissue biopsies, pathological observation was then conducted.

The nature of a further series: in vivo. As to conditions: rat, plasma, iv, 3.5 mg/kg.

Non-standard residues stand in square brackets, D forms with d. Residues, ends and D or L forms follow the SMILES beside them.

From the text for in vivo: Blood samples were collected and placed the heparinized test tubes according to blood collection times.

Regarding `CSCC[C@@H](NC(=O)[C@H](NC(=O)[C@@H](C)NC(=O)[C@@H](CO)NC(=O)CN)C(C)C)C(=O)N[C@H](Cc1ccccc1)C(=O)N[C@H](CO)C(=O)N[C@H](CO)C(=O)N[C@H](CCCCN)C(=O)N[C@H](CCC(=O)O)C(=O)N[C@H](CCCNC(=N)N)C(=O)NCC(=O)O` [D-TTK001, Gly-D-Ser-D-Ala-D-Val-D-Met-D-Phe-D-Ser-D-Ser-D-Lys-D-Glu-D-Arg-Gly] (H-G[dS][dA][dV][dM][dF][dS][dS][dK][dE][dR]G-OH; N-terminus and C-terminus assumed), the “copy number of HBV DNA in serum” value in the series on HBV transgenic mice [1] (2.5 mg/kg and 5.0 mg/kg, tail intravenous injection) is “clearly reduced”. The “effective rate (serum HBV DNA)” value with HBV transgenic mice [1] (2.5 mg/kg group, from one week (T1+ group), 3 out of 10 mice) was found to be 30%. Also, the “effective rate (serum HBV DNA)” value in the series on HBV transgenic mice [1] (5.0 mg/kg group, 23 out of 42 mice) was 54.8%. Further, the “time dependent decreasing effective rate” value with HBV transgenic mice [1] (5.0 mg/kg group, 7 out of 23 mice) is listed as 30.4%. Also, in the series on HBV transgenic mice [1] (5.0 mg/kg group, 18 out of 39 mice), the “effective rate (serum HBV DNA) from one week (T1+ group)” value was 46.2%. For the same compound, the “ballooning degeneration of hepatocytes in liver tissue” value in the series on HBV transgenic mice [2] is given as “none of 6 mice in experimental group showed ballooning degeneration of hepatocytes”. Besides, in “in vivo”, the C0 is 36500 ng/mL and the Vd (usually the apparent volume that relates the amount in the body to the concentration in plasma or blood) came out at 0.207 L/kg. Moreover, the AUC(0-t) – broadly, exposure summed from dosing to a finite time, without extrapolation to infinity – in “in vivo” (AUC0-t, Mean, rats, intravenous injection 3.5 mg/kg, mean of 6) is 20800 ng·h/mL. Also, the AUC(0-inf) (in general, the area under the concentration-time curve extrapolated to infinity) in the series “in vivo” (AUC0-∞, Mean, rats, intravenous injection 3.5 mg/kg, mean of 6) is 24100 ng·h/mL. In addition, the clearance (commonly the rate of elimination divided by the concentration) in the series “in vivo” (CL, Mean, rats, intravenous injection 3.5 mg/kg, mean of 6) stood at 3 mL/min/kg. Also, the Cmax (in general, the peak of the concentration-time curve) in “in vivo” (Cmax, Mean, rats, intravenous injection 3.5 mg/kg, mean of 6) amounted to 35800 ng/mL. Besides, in the series “in vivo” (t½, Mean, rats, intravenous injection 3.5 mg/kg, mean of 6), the half-life (usually the time needed for the level to fall by half in the phase considered) is 55.3 min.

For the origin of these results see patent publication US10570176B2, “Anti-hepatitis B virus X protein polypeptide pharmaceutical” (priority 2015, dated 2020).
